Laboratory results: ChEMBL document CHEMBL1149262, “Monoamine transporter binding, locomotor activity, and drug discrimination properties of 3-(4-substituted-phenyl)tropane-2-carboxylic acid methyl ester isomers” (J Med Chem, 2004)
Activity calls are given as the source filed them. The rule behind the calls is not given here.

Key:
Mus musculus [1] = assay: Activity in CD1 mouse assessed as hypoactivity at 100 mg/kg, ip after 4 hrs; type: functional, organism-based; set-up: dose 100 mg/kg
[2] = molecular target: Sodium-dependent noradrenaline transporter (Homo sapiens, UniProt P23975); assay: Displacement of [3H]nisoxetine from NET
Sequence of Sodium-dependent noradrenaline transporter (P23975 whole entry): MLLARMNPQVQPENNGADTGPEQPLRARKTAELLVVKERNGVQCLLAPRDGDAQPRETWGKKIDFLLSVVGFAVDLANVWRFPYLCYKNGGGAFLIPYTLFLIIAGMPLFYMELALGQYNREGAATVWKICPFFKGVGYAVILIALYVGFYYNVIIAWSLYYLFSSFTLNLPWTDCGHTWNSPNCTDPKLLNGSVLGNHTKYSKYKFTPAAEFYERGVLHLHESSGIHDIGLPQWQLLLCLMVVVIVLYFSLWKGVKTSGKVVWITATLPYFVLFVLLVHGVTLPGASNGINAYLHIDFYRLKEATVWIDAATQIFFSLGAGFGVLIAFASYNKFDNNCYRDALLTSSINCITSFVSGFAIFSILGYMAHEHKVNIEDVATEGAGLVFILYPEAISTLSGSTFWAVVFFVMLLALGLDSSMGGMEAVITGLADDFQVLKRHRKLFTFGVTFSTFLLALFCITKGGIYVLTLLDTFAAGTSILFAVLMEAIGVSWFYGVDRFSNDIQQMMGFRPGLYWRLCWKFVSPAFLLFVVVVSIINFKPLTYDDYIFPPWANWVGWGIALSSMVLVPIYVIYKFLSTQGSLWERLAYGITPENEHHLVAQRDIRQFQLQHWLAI

Mus musculus [3] = assay: Locomotor activity in CD1 mouse assessed as stimulation at 1 mg/kg, ip after 1 hr relative to control; type: functional; settings: route intraperitoneal
Mus musculus [4] = assay: Locomotor activity in CD1 mouse assessed as stimulation at 30 mg/kg, ip after 1 hr relative to control; type: functional; settings: route intraperitoneal
Rattus norvegicus [5] = assay: Drug discrimination effect in CD Albino rat assessed as percent of rat choosing cocaine lever at 3 mg/kg, ip; type: functional; settings: route intraperitoneal
Rattus norvegicus [6] = assay: Drug discrimination effect in CD Albino rat assessed as percent of rat choosing cocaine lever at 17 mg/kg, ip; type: functional; settings: route intraperitoneal
Mus musculus [7] = assay: Locomotor activity in CD1 mouse assessed as stimulation at 3 mg/kg, ip after 1 hr relative to control; type: functional; settings: route intraperitoneal
Mus musculus [8] = assay: Locomotor activity in CD1 mouse assessed as stimulation at 3 mg/kg, ip after 2 hrs relative to control; type: functional; settings: route intraperitoneal
Mus musculus [9] = assay: Locomotor activity in CD1 mouse assessed as stimulation at 10 mg/kg, ip after 4 hrs relative to control; type: functional; settings: route intraperitoneal
Mus musculus [10] = assay: Locomotor activity in ip dosed CD1 mouse in peak hour; type: functional
Mus musculus [11] = assay: Locomotor activity in CD1 mouse assessed as stimulation at 10 mg/kg, ip after 2 hrs relative to control; type: functional; settings: route intraperitoneal
Mus musculus [12] = assay: Locomotor activity in CD1 mouse assessed as stimulation at 1 mg/kg, ip after 3 hrs relative to control; type: functional; settings: route intraperitoneal
Rattus norvegicus [13] = assay: Drug discrimination effect in CD Albino rat assessed as percent of rat choosing cocaine lever at 5.6 mg/kg, ip; type: functional; settings: route intraperitoneal
Mus musculus [14] = assay: Locomotor activity in CD1 mouse assessed as stimulation at 1 mg/kg, ip after 4 hrs relative to control; type: functional; settings: route intraperitoneal
Mus musculus [15] = assay: Locomotor activity in CD1 mouse assessed as stimulation at 1 mg/kg, ip after 2 hrs relative to control; type: functional; settings: route intraperitoneal
Mus musculus [16] = assay: Activity in CD1 mouse assessed as tremor at 100 mg/kg, ip after 4 hrs; type: functional, organism-based; set-up: dose 100 mg/kg
Mus musculus [17] = assay: Activity in CD1 mouse assessed as slight or intermittent stereotypy at 10 mg/kg, ip after 4 hrs; type: functional, organism-based; set-up: dose 10 mg/kg
Mus musculus [18] = assay: Locomotor activity in CD1 mouse assessed as stimulation at 30 mg/kg, ip after 3 hrs relative to control; type: functional; settings: route intraperitoneal
Mus musculus [19] = assay: Activity in CD1 mouse assessed as stereotypy at 100 mg/kg, ip after 4 hrs; type: functional, organism-based; set-up: dose 100 mg/kg
[20] = molecular target: Sodium-dependent serotonin transporter (Homo sapiens, UniProt P31645)
Sequence of Sodium-dependent serotonin transporter (P31645 whole entry): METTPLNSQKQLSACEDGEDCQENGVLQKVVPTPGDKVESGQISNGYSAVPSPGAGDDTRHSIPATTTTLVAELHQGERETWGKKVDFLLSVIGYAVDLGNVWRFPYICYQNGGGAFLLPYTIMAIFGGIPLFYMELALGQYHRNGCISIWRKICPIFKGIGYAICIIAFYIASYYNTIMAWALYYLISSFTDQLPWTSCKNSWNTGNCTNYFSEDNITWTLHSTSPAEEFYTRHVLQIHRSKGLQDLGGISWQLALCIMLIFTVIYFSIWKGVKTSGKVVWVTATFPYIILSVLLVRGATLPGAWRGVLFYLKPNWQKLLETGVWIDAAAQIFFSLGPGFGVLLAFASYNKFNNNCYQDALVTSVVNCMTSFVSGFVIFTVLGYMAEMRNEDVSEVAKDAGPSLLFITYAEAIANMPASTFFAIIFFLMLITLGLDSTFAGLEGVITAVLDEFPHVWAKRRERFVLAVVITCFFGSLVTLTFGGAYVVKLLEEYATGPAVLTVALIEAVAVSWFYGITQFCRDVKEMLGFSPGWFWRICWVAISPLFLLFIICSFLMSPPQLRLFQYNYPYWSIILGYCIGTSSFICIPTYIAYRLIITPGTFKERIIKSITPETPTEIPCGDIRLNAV
Description: Displacement of [3H]paroxetine from 5HTT

Rattus norvegicus [21] = assay: Drug discrimination effect in CD Albino rat assessed as percent of rat choosing cocaine lever at 10 mg/kg, ip; type: functional; settings: route intraperitoneal
Mus musculus [22] = assay: Locomotor activity in CD1 mouse assessed as stimulation at 30 mg/kg, ip after 2 hrs relative to control; type: functional; settings: route intraperitoneal
Mus musculus [23] = assay: Locomotor activity in CD1 mouse assessed as stimulation at 10 mg/kg, ip after 3 hrs relative to control; type: functional; settings: route intraperitoneal
Mus musculus [24] = assay: Locomotor activity in CD1 mouse assessed as stimulation at 30 mg/kg, ip after 4 hrs relative to control; type: functional; settings: route intraperitoneal
Rattus norvegicus [25] = assay: Cocaine discrimination in ip dosed CD Albino rat; type: functional
Mus musculus [26] = assay: Activity in CD1 mouse assessed as convulsions at 100 mg/kg, ip after 4 hrs; type: functional, organism-based; set-up: dose 100 mg/kg
Mus musculus [27] = assay: Locomotor activity in CD1 mouse assessed as stimulation at 3 mg/kg, ip after 4 hrs relative to control; type: functional; settings: route intraperitoneal
Mus musculus [28] = assay: Locomotor activity in CD1 mouse assessed as stimulation at 3 mg/kg, ip after 3 hrs relative to control; type: functional; settings: route intraperitoneal
Mus musculus [29] = assay: Locomotor activity in CD1 mouse assessed as stimulation at 10 mg/kg, ip after 1 hr relative to control; type: functional; settings: route intraperitoneal
Mus musculus [30] = assay: Activity in CD1 mouse assessed as circling at 100 mg/kg, ip after 4 hrs; type: functional, organism-based; set-up: dose 100 mg/kg
Mus musculus [31] = assay: Locomotor activity in ip dosed CD1 mouse after 1 hr relative to cocaine; type: functional
Mus musculus [32] = assay: Activity in CD1 mouse assessed as hind limb splay at 100 mg/kg, ip after 4 hrs; type: functional, organism-based; set-up: dose 100 mg/kg; settings: Hindlimb
[33] = molecular target: Sodium-dependent dopamine transporter (Homo sapiens, UniProt Q01959); assay: Displacement of [3H]WIN-35428 from DAT
Sequence of Sodium-dependent dopamine transporter (Q01959 whole entry): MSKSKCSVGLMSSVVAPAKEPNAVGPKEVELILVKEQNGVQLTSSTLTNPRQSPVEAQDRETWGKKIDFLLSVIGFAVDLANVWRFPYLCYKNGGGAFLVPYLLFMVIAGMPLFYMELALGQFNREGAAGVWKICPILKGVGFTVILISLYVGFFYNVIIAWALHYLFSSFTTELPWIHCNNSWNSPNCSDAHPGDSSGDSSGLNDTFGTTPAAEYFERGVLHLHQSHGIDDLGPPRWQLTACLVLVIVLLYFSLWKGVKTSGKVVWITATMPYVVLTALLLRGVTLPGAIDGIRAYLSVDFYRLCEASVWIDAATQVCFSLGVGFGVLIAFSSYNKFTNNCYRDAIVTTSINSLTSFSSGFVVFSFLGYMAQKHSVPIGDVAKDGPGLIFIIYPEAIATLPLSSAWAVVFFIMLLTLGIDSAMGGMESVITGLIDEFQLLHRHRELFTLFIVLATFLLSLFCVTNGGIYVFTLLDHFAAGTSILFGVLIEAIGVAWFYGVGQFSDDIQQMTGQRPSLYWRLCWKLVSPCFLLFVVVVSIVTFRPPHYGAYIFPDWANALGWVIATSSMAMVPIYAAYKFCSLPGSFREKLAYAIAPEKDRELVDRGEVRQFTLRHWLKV

Mus musculus [34] = assay: Activity in CD1 mouse assessed as straub tail at 100 mg/kg, ip after 4 hrs; type: functional, organism-based; set-up: dose 100 mg/kg
Mus musculus [35] = assay: Activity in CD1 mouse assessed as death at 100 mg/kg, ip after 4 hrs; type: functional, organism-based; set-up: dose 100 mg/kg
Rattus norvegicus [36] = assay: Drug discrimination effect in CD Albino rat assessed as percent of rat choosing cocaine lever at 1.7 mg/kg, ip; type: functional; settings: route intraperitoneal
Mus musculus [37] = assay: Activity in CD1 mouse assessed as slight or intermittent hyperactivity at 100 mg/kg, ip after 4 hrs; type: functional, organism-based; set-up: dose 100 mg/kg
Mus musculus [38] = assay: Locomotor activity in CD1 mouse assessed as stimulation at 100 mg/kg, ip after 4 hrs relative to control; type: functional; settings: route intraperitoneal
Mus musculus [39] = assay: Locomotor activity in CD1 mouse assessed as stimulation at 100 mg/kg, ip after 1 hr relative to control; type: functional; settings: route intraperitoneal
Mus musculus [40] = assay: Locomotor activity in CD1 mouse assessed as stimulation at 100 mg/kg, ip after 3 hrs relative to control; type: functional; settings: route intraperitoneal
Mus musculus [41] = assay: Locomotor activity in CD1 mouse assessed as stimulation at 100 mg/kg, ip after 2 hrs relative to control; type: functional; settings: route intraperitoneal
Rattus norvegicus [42] = assay: Drug discrimination effect in CD Albino rat assessed as percent of rat choosing cocaine lever at 1 mg/kg, ip; type: functional; settings: route intraperitoneal
Mus musculus [43] = assay: Locomotor activity in CD1 mouse assessed as stimulation at 0.1 mg/kg, ip after 2 hrs relative to control; type: functional; settings: route intraperitoneal
Mus musculus [44] = assay: Locomotor activity in CD1 mouse assessed as stimulation at 0.1 mg/kg, ip after 1 hr relative to control; type: functional; settings: route intraperitoneal
Mus musculus [45] = assay: Locomotor activity in CD1 mouse assessed as stimulation at 0.3 mg/kg, ip after 3 hrs relative to control; type: functional; settings: route intraperitoneal
Mus musculus [46] = assay: Locomotor activity in CD1 mouse assessed as stimulation at 0.1 mg/kg, ip after 3 hrs relative to control; type: functional; settings: route intraperitoneal
Mus musculus [47] = assay: Locomotor activity in CD1 mouse assessed as stimulation at 0.3 mg/kg, ip after 2 hrs relative to control; type: functional; settings: route intraperitoneal
Mus musculus [48] = assay: Activity in CD1 mouse assessed as circling at 1 mg/kg, ip after 4 hrs; type: functional, organism-based; set-up: dose 1 mg/kg
Rattus norvegicus [49] = assay: Drug discrimination effect in CD Albino rat assessed as percent of rat choosing cocaine lever at 0.3 mg/kg, ip; type: functional; settings: route intraperitoneal
Mus musculus [50] = assay: Locomotor activity in CD1 mouse assessed as stimulation at 0.1 mg/kg, ip after 4 hrs relative to control; type: functional; settings: route intraperitoneal
Mus musculus [51] = assay: Locomotor activity in CD1 mouse assessed as stimulation at 0.3 mg/kg, ip after 1 hr relative to control; type: functional; settings: route intraperitoneal
Mus musculus [52] = assay: Activity in CD1 mouse assessed as stereotypy at 10 mg/kg, ip after 4 hrs; type: functional, organism-based; set-up: dose 10 mg/kg
Rattus norvegicus [53] = assay: Drug discrimination effect in CD Albino rat assessed as percent of rat choosing cocaine lever at 0.1 mg/kg, ip; type: functional; settings: route intraperitoneal
Mus musculus [54] = assay: Locomotor activity in CD1 mouse assessed as stimulation at 0.3 mg/kg, ip after 4 hrs relative to control; type: functional; settings: route intraperitoneal
Mus musculus [55] = assay: Activity in CD1 mouse assessed as stereotypy at 1 mg/kg, ip after 4 hrs; type: functional, organism-based; set-up: dose 1 mg/kg
Rattus norvegicus [56] = assay: Drug discrimination effect in CD Albino rat assessed as percent of rat choosing cocaine lever at 0.17 mg/kg, ip; type: functional; settings: route intraperitoneal
Mus musculus [57] = assay: Activity in CD1 mouse assessed as hyperactivity at 1 mg/kg, ip after 4 hrs; type: functional, organism-based; set-up: dose 1 mg/kg

Row | SMILES | IC50 [2] [µM] | Ki [2] [µM] | Activity (Mus musculus [3]) [%] | Activity (Mus musculus [4]) [%] | Activity (Rattus norvegicus [5]) [%] | Activity (Mus musculus [7]) [%] | Activity (Mus musculus [8]) [%] | Activity (Mus musculus [9]) [%] | ED50 (Mus musculus [10]) [mg/kg] | Activity (Mus musculus [11]) [%] | Activity (Mus musculus [12]) [%] | Activity (Mus musculus [14]) [%] | Activity (Mus musculus [15]) [%] | Activity (Mus musculus [18]) [%] | Activity (Mus musculus [19]) | IC50 [20] [µM] | Activity (Rattus norvegicus [21]) [%] | ED50 (Rattus norvegicus [25]) [mg/kg] | Activity (Mus musculus [27]) [%] | Activity (Mus musculus [28]) [%] | other results
1 | COC(=O)[C@H]1C2CCC(C[C@@H]1c1ccc(F)cc1)N2C (some centres undefined) | 7.2 | 4.34 | -10 | 24 | 0 | 15 | 58 | 196 | 2.4 | 107 | 52 | 28 | 5 | 298 | Active | > 10 | 57 | 8.01 | 19 | 120 | Activity (Mus musculus [1]): Active; Activity (Rattus norvegicus [6]): 100%; Activity (Rattus norvegicus [13]): 33%; Activity (Mus musculus [16]): Active; Activity (Mus musculus [17]): Active; Activity (Mus musculus [22]): 207%; Activity (Mus musculus [23]): 260%; Activity (Mus musculus [24]): 127%; Activity (Mus musculus [26]): Active; Activity (Mus musculus [29]): 58%; Activity (Mus musculus [30]): Active
2 | COC(=O)[C@H]1C2CCC(C[C@@H]1c1ccc(I)cc1)N2C (some centres undefined) | 0.76 | 0.458 | 0 | 7 | 0 | 19 | 17 | 40 | 9.9 | 49 | 99 | 41 | 44 | 268 | Active | 0.0663 | 14 | 13.5 | 13 | 96 | Ratio (Mus musculus [31]): 0.1; Activity (Rattus norvegicus [6]): 80%; Activity (Mus musculus [32]): Active; IC50 [33]: 0.0227 µM; Activity (Mus musculus [16]): Active; Activity (Mus musculus [17]): Active; Ki [20]: 0.006 µM; Activity (Mus musculus [22]): 150%; Activity (Mus musculus [23]): 85%; Activity (Mus musculus [24]): 255%; Activity (Mus musculus [34]): Active; Activity (Mus musculus [26]): Active; Activity (Mus musculus [35]): Active; Activity (Mus musculus [29]): 17%
3 | COC(=O)[C@@H]1C2CCC(C[C@H]1c1ccc(I)cc1)N2C (some centres undefined) | 0.0524 | 0.032 | – | 308 | 43 | 14 | -72 | 49 | 7.7 | 100 | – | – | – | 391 | – | 0.0649 | 86 | 4.72 | -42 | 64 | Activity (Rattus norvegicus [36]): 14%; Activity (Mus musculus [37]): Active; Ratio (Mus musculus [31]): 1; Activity (Mus musculus [38]): 124%; Activity (Mus musculus [39]): 328%; IC50 [33]: 0.0029 µM; Activity (Rattus norvegicus [13]): 44%; Ki [20]: 0.0059 µM; Activity (Mus musculus [40]): 692%; Activity (Mus musculus [22]): 121%; Activity (Mus musculus [23]): 457%; Activity (Mus musculus [24]): 25%; Activity (Mus musculus [41]): 168%; Activity (Rattus norvegicus [42]): 0%; Activity (Mus musculus [29]): 210%
4 | COC(=O)C1C2CC[C@H](C[C@@H]1c1ccc(Cl)cc1)N2C (some centres undefined) | – | – | 645 | – | – | 416 | -36 | – | 0.2 | – | 1892 | 1507 | 958 | – | Active | – | – | 0.13 | 1643 | 589 | Activity (Mus musculus [43]): 53%; Activity (Mus musculus [44]): -26%; Activity (Mus musculus [45]): 1201%; Activity (Mus musculus [46]): 91%; Activity (Mus musculus [32]): Active; Activity (Mus musculus [47]): 1426%; IC50 [33]: 0.0011 µM; Activity (Mus musculus [48]): Active; Activity (Rattus norvegicus [49]): 100%; Activity (Mus musculus [50]): 17%; Activity (Mus musculus [51]): 462%; Activity (Mus musculus [52]): Active; Activity (Rattus norvegicus [53]): 50%; Activity (Mus musculus [54]): 235%; Activity (Mus musculus [55]): Active; Activity (Mus musculus [34]): Active; Activity (Rattus norvegicus [56]): 44%; Activity (Mus musculus [57]): Active
